Laboratory results taken from the NIST ThermoML archive (doi:10.1021/je500381c).

Test: xn = mol fraction of the nth substance listed
Conditions: for mass density / viscosity: 100 kPa, Liquid; for mass density: Vibrating tube method; for surface tension liquid-gas: Drop volume

CCC12CC3CC(CC(C3)C1)C2 [1-ethyladamantane] + OCC1CCCCC1
Conditions	mass density [kg/m3]	surface tension liquid-gas [mN/m]	viscosity [mPa·s]
293.15 K, x2 = 0	937.11	–	6.371
293.15 K, x2 = 0.1	936.13	–	6.695
293.15 K, x2 = 0.2002	935.23	–	7.433
293.15 K, x2 = 0.2997	934.37	–	8.368
293.15 K, x2 = 0.3999	933.76	–	9.674
293.15 K, x2 = 0.4998	933.1	–	11.54
293.15 K, x2 = 0.5989	932.54	–	14.09
293.15 K, x2 = 0.7001	931.93	–	17.67
293.15 K, x2 = 0.8023	931.24	–	23.66
293.15 K, x2 = 0.8996	930.57	–	29.61
298.15 K, x2 = 0	933.58	29.87	5.565
298.15 K, x2 = 0.1	932.5	30.21	5.776
298.15 K, x2 = 0.2002	931.58	30.84	6.348
298.15 K, x2 = 0.2997	930.72	30.99	7.083
298.15 K, x2 = 0.3999	930.09	31.23	8.081
298.15 K, x2 = 0.4998	929.43	31.51	9.483
298.15 K, x2 = 0.5989	928.87	31.86	11.38
298.15 K, x2 = 0.7001	928.31	31.98	14.04
298.15 K, x2 = 0.8023	927.68	32.1	18.53
298.15 K, x2 = 0.8996	927	32.21	22.86
303.15 K, x2 = 0	929.99	–	4.903
303.15 K, x2 = 0.1	928.84	–	5.033
303.15 K, x2 = 0.2002	927.89	–	5.484
303.15 K, x2 = 0.2997	927.06	–	6.058
303.15 K, x2 = 0.3999	926.4	–	6.832
303.15 K, x2 = 0.4998	925.74	–	7.675
303.15 K, x2 = 0.5989	925.17	–	9.337
303.15 K, x2 = 0.7001	924.63	–	11.31
303.15 K, x2 = 0.8023	924.04	–	14.75
303.15 K, x2 = 0.8996	923.4	–	18.07
308.15 K, x2 = 0	926.4	–	4.348
308.15 K, x2 = 0.1	925.16	–	4.417
308.15 K, x2 = 0.2002	924.2	–	4.772
308.15 K, x2 = 0.2997	923.39	–	5.224
308.15 K, x2 = 0.3999	922.68	–	5.833
308.15 K, x2 = 0.4998	922.03	–	6.657
308.15 K, x2 = 0.5989	921.45	–	7.748
308.15 K, x2 = 0.7001	920.92	–	9.236
308.15 K, x2 = 0.8023	920.38	–	11.88
308.15 K, x2 = 0.8996	919.77	–	14.39
313.15 K, x2 = 0	922.81	–	3.878
313.15 K, x2 = 0.1	921.48	–	3.897
313.15 K, x2 = 0.2002	920.49	–	4.182
313.15 K, x2 = 0.2997	919.69	–	4.542
313.15 K, x2 = 0.3999	918.95	–	5.016
313.15 K, x2 = 0.4998	918.29	–	5.663
313.15 K, x2 = 0.5989	917.71	–	6.499
313.15 K, x2 = 0.7001	917.19	–	7.629
313.15 K, x2 = 0.8023	916.67	–	9.75
313.15 K, x2 = 0.8996	916.12	–	11.66
318.15 K, x2 = 0	919.21	–	3.478
318.15 K, x2 = 0.1	917.79	–	3.463
318.15 K, x2 = 0.2002	916.77	–	3.688
318.15 K, x2 = 0.2997	915.95	–	3.973
318.15 K, x2 = 0.3999	915.2	–	4.35
318.15 K, x2 = 0.4998	914.53	–	4.857
318.15 K, x2 = 0.5989	913.94	–	5.504
318.15 K, x2 = 0.7001	913.43	–	6.374
318.15 K, x2 = 0.8023	912.93	–	8.051
318.15 K, x2 = 0.8996	912.44	–	9.556
323.15 K, x2 = 0	915.62	–	3.134
323.15 K, x2 = 0.1	914.09	–	3.094
323.15 K, x2 = 0.2002	913.03	–	3.27
323.15 K, x2 = 0.2997	912.19	–	3.497
323.15 K, x2 = 0.3999	911.42	–	3.798
323.15 K, x2 = 0.4998	910.75	–	4.199
323.15 K, x2 = 0.5989	910.15	–	4.707
323.15 K, x2 = 0.7001	909.63	–	5.378
323.15 K, x2 = 0.8023	909.16	–	6.705
323.15 K, x2 = 0.8996	908.7	–	7.906
328.15 K, x2 = 0	912.01	–	2.838
328.15 K, x2 = 0.1	910.38	–	2.777
328.15 K, x2 = 0.2002	909.27	–	2.915
328.15 K, x2 = 0.2997	908.41	–	3.096
328.15 K, x2 = 0.3999	907.62	–	3.338
328.15 K, x2 = 0.4998	906.94	–	3.657
328.15 K, x2 = 0.5989	906.33	–	4.059
328.15 K, x2 = 0.7001	905.81	–	4.581
328.15 K, x2 = 0.8023	905.35	–	5.629
328.15 K, x2 = 0.8996	904.92	–	6.508
333.15 K, x2 = 0	908.41	–	2.581
333.15 K, x2 = 0.1	906.65	–	2.507
333.15 K, x2 = 0.2002	905.5	–	2.613
333.15 K, x2 = 0.2997	904.61	–	2.756
333.15 K, x2 = 0.3999	903.81	–	2.952
333.15 K, x2 = 0.4998	903.1	–	3.208
333.15 K, x2 = 0.5989	902.49	–	3.525
333.15 K, x2 = 0.7001	901.96	–	3.935
333.15 K, x2 = 0.8023	901.5	–	4.674
333.15 K, x2 = 0.8996	901.1	–	5.472
